Test results: ChEMBL document CHEMBL1150859, “Gelliusterols A--D, new acetylenic sterols from a sponge, Gellius species” (J Nat Prod, 2001)
In brackets after ≈: the same amount, converted by molar mass.

Assays:
Assay type in all cases: functional, cell-based
HT-29 = assay: Cytotoxicity against human HT-29 cells
A549 = assay: Cytotoxicity against human A549 cells
P388 = assay: Cytotoxicity against mouse P388 cells
DU-145 = assay: Cytotoxicity against human DU145 cells
SK-MEL-28 = assay: Cytotoxicity against human SK-MEL-28 cells

| SMILES | IC50 (HT-29) | IC50 (A549) | IC50 (P388) | IC50 (DU-145) | IC50 (SK-MEL-28) |
| --- | --- | --- | --- | --- | --- |
| CC#CC[C@@H](C)[C@H]1CC[C@H]2[C@@H]3C(=O)C=C4C[C@@H](O)CC[C@]4(C)[C@H]3CC[C@]12C [GELLIUSTEROL B] | > 1 µg/mL | > 1 µg/mL | > 1 µg/mL | > 1 µg/mL | > 1 µg/mL |
| CC(C)C#CC[C@@H](C)[C@H]1CC[C@H]2[C@@H]3C(=O)C=C4C[C@@H](O)CC[C@]4(C)[C@H]3CC[C@]12C [GELLIUSTEROL C] | 0.5 µg/mL (≈ 1.26 µM) | > 1 µg/mL | > 1 µg/mL | > 1 µg/mL | > 1 µg/mL |
| CC#CC[C@@H](C)[C@H]1CC[C@H]2[C@@H]3[C@H](O)C=C4C[C@@H](O)CC[C@]4(C)[C@H]3CC[C@]12C [GELLIUSTEROL A] | > 1 µg/mL | > 1 µg/mL | > 1 µg/mL | > 1 µg/mL | > 1 µg/mL |
